The values that follow come from ChEMBL document CHEMBL1201862, “PubChem BioAssay data set” (2004).

Common to all, as to assay: NCI tumour cell line growth inhibition, 48 h
Assay [1] concerns NCI-H460.
In assay [2] the test system is OVCAR-3.
The subject of assay [3] is HCT-116.
Assay [4] relates to HCC 2998.
For assay [5], the system named is UACC-62.
Assay [6] concerns KM12.
In assay [7] the test system is SK-MEL-2.
Assay [8] relates to SF-295.
The test system of assay [9] is MDA-MB-231.
The test system of assay [10] is Hs-578T.
Assay [11] relates to K562.
In assay [12] the test system is COLO 205.
In assay [13] the test system is M14.
The test system of assay [14] is MOLT-4.
The test system of assay [15] is MCF7.
Assay [16] concerns HL-60.
The test system of assay [17] is A498.
Assay [18] deals with SW-620.
The subject of assay [19] is Malme-3M.
Assay [20] concerns CCRF-CEM.

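In this assay, cells in 96-well plates receive the compound at five concentrations for 48 hours. Endpoints are linearly interpolated between the surrounding concentrations. At the GI50, growth is halved.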 Active and inactive are the calls of the source. No stated cut-off is given here; in the data, active = GI50 up to about 1.1 µM and inactive = higher.

Regarding `CCOC(=O)C1C(=O)CC(C)(O)C(C(=O)OCC)C1c1ccc(OC)cc1` (stereo not given), the GI50 in [1], in [2], in [3], in assay [4], in assay [5] and in assay [6] was > 100 µM (inactive) in each case. Further, the GI50 in [7], in [8], in assay [9], in assay [10], in assay [11] and in assay [12] was > 100 µM (inactive) each time. For the same compound, the GI50 in assay [13], in assay [14], in [15], in [16], in assay [17] and in [18] was > 100 µM (inactive) each time. Moreover, the GI50 in [19] and in [20] was > 100 µM (inactive) throughout.
On to `C(=N/c1ccccc1C1SCCCS1)/c1ccccc1`, for which the GI50 in assay [1], in assay [2], in assay [3], in assay [4], in assay [5] and in assay [6] was > 100 µM (inactive) each time. For the same compound, the GI50 in assay [7], in assay [8], in assay [9], in assay [10], in assay [11] and in assay [12] was > 100 µM (inactive) in each case. In addition, the GI50 in [13] was > 100 µM (inactive); in [14] it was > 100 µM (inactive); in assay [15], > 100 µM (inactive); in [16], 82.6 µM (inactive); in [17], > 100 µM (inactive); in assay [18] it was > 100 µM (inactive). Besides, the GI50 in assay [19] and in [20] was > 100 µM (inactive) throughout.
Take `O=CN1CCN(C(=O)c2ccc(Cl)cc2)C1=S`: the GI50 is 21.6 µM (inactive) in assay [1]; 15.4 µM (inactive) in [2]; 18 µM (inactive) in assay [3]; 19.8 µM (inactive) in assay [4]; 15.9 µM (inactive) in assay [5]; 12.7 µM (inactive) in assay [6]. Moreover, the GI50 in [7] is 16.3 µM (inactive); in [8], 26.9 µM (inactive); in assay [9], 16.4 µM (inactive); in assay [10] it was 49.5 µM (inactive); in assay [11], 12.9 µM (inactive); in [12], 20.7 µM (inactive). The GI50 in assay [13] is 14.6 µM (inactive); in assay [14] it was 19.2 µM (inactive); in assay [15], 2.79 µM (inactive); in assay [16], 23.3 µM (inactive); in assay [17], 14.8 µM (inactive); in [18], 18 µM (inactive). Besides, the GI50 in [19] was 24.5 µM (inactive); in assay [20], 12.8 µM (inactive).
On to `C=C1CC2(OC1=O)c1ccccc1C=Cc1ccccc12`, for which the GI50 was 11.2 µM (inactive) in assay [1]; 4.61 µM (inactive) in assay [2]; 1.73 µM (inactive) in assay [3]; 6.95 µM (inactive) in assay [4]; 5.13 µM (inactive) in assay [5]; 4.05 µM (inactive) in [6]. For the same compound, the GI50 in [7] is 8.65 µM (inactive); in assay [8] it was 18 µM (inactive); in [9], 2.26 µM (inactive); in assay [10], 2.51 µM (inactive); in assay [11], 1.2 µM (inactive); in assay [12], 2.3 µM (inactive). Moreover, the GI50 in assay [13] is 4.25 µM (inactive); in assay [14] it was 1.81 µM (inactive); in [15] it was 2.3 µM (inactive); in assay [16] it was 0.661 µM (active); in assay [17], 8.24 µM (inactive); in [18], 1.5 µM (inactive). The figures for the GI50 in [19] and in assay [20] were 4.94 µM (inactive) and 0.697 µM (active), respectively.
As to `CC(C)(CN1CCCCC1)C(=O)CC(SCCS(=O)(=O)O)c1ccc(Cl)cc1` (stereo not given), the GI50 in assay [1] is 6.41 µM (inactive); in assay [2], 5.22 µM (inactive); in assay [3], 3.03 µM (inactive); in assay [4] it was 12.3 µM (inactive); in [5], 4.21 µM (inactive); in assay [6] it was 4.31 µM (inactive). Also, the GI50 in assay [7] was 2.22 µM (inactive); in [8] it was 0.925 µM (active); in assay [9], 3.1 µM (inactive); in assay [10], 3.2 µM (inactive); in [11], 3.09 µM (inactive); in [12] it was 2.86 µM (inactive). In addition, the GI50 is 3.19 µM (inactive) in assay [13]; 2.92 µM (inactive) in assay [14]; 3.3 µM (inactive) in assay [15]; 6.18 µM (inactive) in [16]; 4.26 µM (inactive) in assay [17]; 4.1 µM (inactive) in assay [18]. In addition, the GI50 in [19] is 5.38 µM (inactive); in [20], 2.74 µM (inactive).
Consider `CCCCC(=O)c1c(O)ccc2c(C)cc(=O)oc12`, for which the GI50 in assay [1] is 53.1 µM (inactive); in [2] it was > 100 µM (inactive); in [3], > 100 µM (inactive); in assay [4] it was 45.8 µM (inactive); in assay [5], > 100 µM (inactive); in [6] it was > 100 µM (inactive). In addition, the GI50 in assay [7] is 3.14 µM (inactive); in assay [8] it was > 100 µM (inactive); in assay [9] it was 67.8 µM (inactive); in assay [10], 29 µM (inactive); in assay [11] it was > 100 µM (inactive); in [12], > 100 µM (inactive). Also, the GI50 in assay [13] was > 100 µM (inactive); in [14], 77.1 µM (inactive); in assay [15] it was 76.2 µM (inactive); in assay [16] it was > 100 µM (inactive); in [17], 97.7 µM (inactive); in [18] it was > 100 µM (inactive). Also, the results for the GI50 in assay [19] and in assay [20] were 39.9 µM (inactive) and 82.2 µM (inactive), respectively.
`Cc1nc2c(O)cc3c4c(n(Cc5ccccc5)c3c2nc1C)C(=O)CCC4`: the GI50 was 83 µM (inactive) in assay [1]; 28.2 µM (inactive) in assay [2]; 34.4 µM (inactive) in assay [3]; > 100 µM (inactive) in assay [4]; 24.5 µM (inactive) in assay [5]; > 100 µM (inactive) in [6]. The GI50 in assay [7] is 10.1 µM (inactive); in assay [8], 34 µM (inactive); in assay [9] it was > 100 µM (inactive); in assay [10], 14.4 µM (inactive); in assay [11], 93.5 µM (inactive); in assay [12], 83 µM (inactive). The GI50 in [13] is 53.2 µM (inactive); in assay [14], > 100 µM (inactive); in assay [15] it was 19.1 µM (inactive); in assay [16] it was > 100 µM (inactive); in assay [17] it was 34 µM (inactive); in assay [18], > 100 µM (inactive). In addition, the figures for the GI50 in assay [19] and in assay [20] were 27.8 µM (inactive) and > 100 µM (inactive), respectively.
